The conditions of data set [1]: cited from earlier work.
The conditions of data set [2]: brain, cited from earlier work.
For data set [3] the following is noted: cited from earlier work. The source holds these as a separate data set.
For data set [4] the following is noted: 30° C., 0.5 atm, cited from earlier work.
The conditions of data set [5]: inhaled, mouse; cited from earlier work.
The conditions of data set [6]: inhaled, humans; cited from earlier work.
A short description of data set [7]: Relaxivity of O2 toward 129Xe and T1 estimates derived from it. The following applies: for T1: absence of other relaxers. In kind it is physicochemical. The source says:
It is known that ^129Xe, which has a long longitudinal relaxation time in the gas phase, can be relaxed by magnetic dipole-dipole interaction and/or Fermi-Contact interaction with the unpaired electron spins of dioxygen. (Reference 18). The solubility of Xenon (and also of dioxygen) in water is low. Due to the low sensitivity of the ^129Xe signal, the time required for determining the relaxivity of O2 toward ^129Xe with a series of T1 determinations over a range of O2 concentrations in water would be prohibitively long.
The relaxivity of O2 toward ^129Xe has been measured in only one liquid, i.e., octanol, which models an amphipathic membrane lipid. (Reference 17). The observed relaxivity, 0.029 s^−1mM^−1, is about three times larger than that estimated from previous reports for gas-phase relaxation, i.e., (Reference 18), 0.0087 s^−1mM^−1, as might be expected for encounters in the condensed phase. The dioxygen relaxivity for ^129Xe is constant over the concentration range studied, and thus 1/T1 will be a linear function of O2 concentration over the entire physiological range (0-0.2 atm, 0-0.2 mM). This translates into a T1 value of 18 s in air-saturated lipid, and 80 s in anaerobic lipid, in the absence of other relaxers. This is the first reported value for the O2 relaxivity toward ^129Xe in a condensed phase. T2values over these O2 concentrations have been determined to range from 0.5 to 5.0 s. […] In fact, given the relative inefficiency of the known non-paramagnetic relaxation mechanisms, it is suspected that T1 in many tissues will not fall below seconds or even tens of seconds.
This estimate of T1≈38 s for ^129Xe dissolved in rat blood at 293° K is very encouraging. […] One can also estimate T1 values for other model systems. The T1 of ^129Xe in water has been measured at 300° K to be 130 s. […] While the actual values of T1 in each tissue must be, and remain to be, determined, it is expected that the minimum value will fall above 15 s, a duration sufficient to enable significant accumulation of polarized ^129Xe in major tissues. […]

The conditions of data set [8]: dissolved in rat blood, 293° K, data obtained over 12 hr; cited from earlier work.
For data set [9] the following is noted: cited from earlier work. The source holds these as a separate data set.
The mark [10] stands for this setting: myoglobin (aqueous Fe(III) metmyoglobin).

SMILES strings stand for the structures. Where “and” joins values, the source holds several entries; their conditions need not be identical. Identical values can stand only once. Like-named read-outs stand apart in the source and are kept apart here.

With `O=O` [O2, dioxygen], the “relaxivity of O2 toward 129Xe” value was 0.0087 s⁻¹ mM⁻¹ in data set [1] (gas phase, estimated from previous reports) and 0.029 s⁻¹ mM⁻¹ in data set [1] (octanol, 300° K).
As to `[Xe]` [Xenon], in [2] (0.5-1.0 atm lung Xenon), the “steady-state concentration bound to proteins” value was 1 to 5 mM, the “steady-state concentration in the membrane bilayers” value was 5 to 10 mM and the “steady-state concentration in water” value was 2 to 4 mM. Further, the “solubility in white matter versus gray matter” value in data set [2] was “approximately twice as soluble in white matter as in gray matter”. Moreover, in [3] (by the body), the metabolism entry is given as “not metabolized by the body”. Besides, the “period of recovery from the exhaled breath” value in [3] (human subjects) was about 20 min. For the same compound, the “solubility of Xenon in octanol” value in data set [4] (octanol) was 48 mM. Besides, in data set [4] (water), the “solubility of Xenon in water” value is 2.4 mM. The “time to reach a steady state with the entire blood volume (one blood circuit)” value in data set [5] was “about 1 s”. Moreover, the “time to reach a steady state with the entire blood volume (one blood circuit)” value in data set [6] is “about 18 s”.
On to `[129Xe]` [^129Xe, Xenon-129], for which the T1 is 18 s in [7] (air-saturated lipid); 80 s in data set [7] (anaerobic lipid); 38 s and ≈ 38 s in [8]; 0.005 s in data set [9] (10% Fe(III) metMb); 155.0 ± 6.2 s in [9] (benzene, 9.4 T and 300° K, Diehl and Jokisaari); 160 s and 160.5 s in [9] (benzene, 300° K). The T1 in [9] (benzene, Moschos and Reisse) is 240 s; in [9] (setting [10]), 0.0052 s; in [9] (octanol), 80 s and 78.5 s; in data set [9] (pure gas phase, practically), “at least 3000 s”; in [9] (water), 130 s and 131.3 s. In addition, in data set [7] (fully oxygenated membranes), the “estimated T1” value was over 15 s. The T2 is 0.88 s in data set [9] (benzene); 0.00057 s in data set [9] (setting [10]); 5.3 s in data set [9] (octanol); “≦56 hrs” in data set [9] (pure gas phase, 1 atm); 5.3 s in data set [9] (water); 0.5 to 5.0 s in [1] (octanol, over O2 concentrations 0-0.2 atm).

Source of the values: patent US6593144B2, “Magnetic resonance imaging using hyperpolarized noble gases” (The Trustees of Princeton University, priority 1994, dated 2003).
